Entries after “also recorded” stand apart in the source; their conditions may differ. Read-outs that look alike come from different tables or passages of the source.
Tests used:
[1] = cited from earlier work
[2] = cited from earlier work; remark: listed apart in the source
PC12 cells [3] = assay: Cytotoxicity in PC12 cells; format: cell-based, rat; conditions: data not shown
[4] = SOD activity, xanthine/xanthine oxidase with NBT detection; format: biochemical; conditions: read-out: SOD IC50, 10 μM NBT, pH 7.8, 25 °C
[5] = In vitro stability in simulated gastric fluid; format: in vitro ADME; conditions: intact compound after 90 min at 37 °C, pH approximately 1.2, HPLC
[6] = Peroxidase activity with tetramethyl benzidine as substrate; conditions: 5 μM sample, 0.2 mM hydrogen peroxide, 0.225 mM TMB, 27 °C; ± SD of triplicates
[7] = Catalase activity, disappearance of hydrogen peroxide; conditions: initial hydrogen peroxide 100 μM; ± SD of triplicates
[8] = In vivo oral availability, plasma levels after intragastric gavage; design: species or system Sprague–Dawley rats; conditions: rat, mean ± SD; for Plasma concentration 30 min: dose per compound 0.23-2.7 mg kg^−1
Octanol partitioning = format: physicochemical; conditions: octanol/aqueous; ± SD of triplicates
PC12 cells [9] = assay: Inhibition of STS-induced cell death in PC12 cells; format: cell-based, rat; conditions: STS 5 μM, 18–24 h, XTT viability
[10] = EUK-425 plasma levels after PO versus IV administration; format: in vivo, Sprague–Dawley rats; conditions: rats, 5 mg kg^−1 PO, 1 mg kg^−1 IV
serum albumin = serum albumin (Homo sapiens, UniProt P02768); assay: In vitro binding to serum albumin; conditions: data not shown
[11] = system: capillary endothelial cells; conditions: endothelial cell culture model; cited from earlier work
[12] = system: capillary endothelial cells; conditions: cited from earlier work
[13] = system: capillary endothelial cells; assay: Mitigation of ionizing radiation-induced apoptosis in endothelial cell culture; format: cell-based; conditions: endothelial cell culture model; unpublished data
[14] = system: capillary endothelial cells; assay: Cytotoxicity in endothelial cell culture model; format: cell-based; conditions: unpublished data

Chain of serum albumin (P02768 25-609 limits assumed): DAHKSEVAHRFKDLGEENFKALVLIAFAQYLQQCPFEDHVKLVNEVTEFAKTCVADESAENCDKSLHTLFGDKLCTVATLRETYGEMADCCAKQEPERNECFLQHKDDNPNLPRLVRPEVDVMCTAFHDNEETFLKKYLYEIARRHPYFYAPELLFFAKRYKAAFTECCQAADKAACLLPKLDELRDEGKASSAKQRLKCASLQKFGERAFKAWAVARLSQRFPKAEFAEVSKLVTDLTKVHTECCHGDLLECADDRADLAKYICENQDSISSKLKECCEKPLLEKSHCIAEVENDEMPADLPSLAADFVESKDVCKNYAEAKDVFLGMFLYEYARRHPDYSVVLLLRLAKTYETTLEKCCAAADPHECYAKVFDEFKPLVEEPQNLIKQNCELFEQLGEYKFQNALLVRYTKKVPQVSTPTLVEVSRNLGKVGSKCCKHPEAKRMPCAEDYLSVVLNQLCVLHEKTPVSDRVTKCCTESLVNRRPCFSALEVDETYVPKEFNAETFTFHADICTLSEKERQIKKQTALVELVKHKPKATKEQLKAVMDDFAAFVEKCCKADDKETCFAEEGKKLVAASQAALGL

Molecule	Cytotoxicity in PC12 cells (PC12 cells [3])	IC50 [4] [µM]	SGF stability [5] [%]	POD [6] [μM TMB min^−1]	CAT [7] [μM H2O2 min^−1]	Plasma concentration 30 min [8] [ng/mL]	Plasma concentration 60 min [8] [ng/mL]	Plasma concentration 120 min [8] [ng/mL]	Plasma concentration 240 min [8] [ng/mL]	Plasma concentration 360 min [8] [ng/mL]	Log10 P (Octanol partitioning)	P (octanol partitioning coefficient) (Octanol partitioning)	Protection of PC12 cells against STS-induced cell death (PC12 cells [9])	Binding to serum albumin (serum albumin)	further results
O=C(O)c1ccc(-c2c3nc(c(-c4ccc(C(=O)O)cc4)c4ccc([n-]4)c(-c4ccc(C(=O)O)cc4)c4nc(c(-c5ccc(C(=O)O)cc5)c5ccc2[n-]5)C=C4)C=C3)cc1.[Mn+3] [MnTBAP, manganese(III) tetrakis(4-benzoic acid) porphyrin]	–	–	–	–	–	–	–	–	–	–	–	–	–	–	SOD activity ([1]; earlier reported activity due to Mn aggregate impurities): no SOD activity
COC(=O)c1c2nc(c(C(F)(F)F)c3ccc([n-]3)c(C(=O)OC)c3nc(c(C(F)(F)F)c4ccc1[n-]4)C=C3)C=C2.[Cl-].[Mn+3] [AEOL11207, 5,15-bis(methoxycarbonyl)-10,20-bistrifluoromethylporphyrinato manganese(III) chloride, reference compound]	–	–	–	–	–	–	–	–	–	–	–	–	–	–	SOD activity, fold less active than Cu/Zn SOD ([1]; normalized to Cu/Zn SOD, assay methods differed): 123 fold; Presence in brain tissue ([2]; mice, after subcutaneous or oral administration): present in the brain tissue
manganese(III) 5,15-di-3,4-dimethoxyphenylporphine acetate [EUK-450]	cytotoxic; also recorded: most cytotoxic	6.39	98	0.66 ± 0.10	0.58 ± 0.08	11 ± 10	15 ± 9	48 ± 46	53 ± 53	47 ± 38	0.650 ± 0.010	4.46 ± 0.11	not significantly protective; also recorded: no cytoprotective activity	–	–
manganese(III) 5,10,15,20-tetraethylporphine acetate [EUK-425]	cytotoxic; also recorded: most cytotoxic	12.5	97	0.58 ± 0.03	0.57 ± 0.15	52 ± 19	48 ± 21	78 ± 47	96 ± 20	–	0.932 ± 0.006	8.56 ± 0.35	not significantly protective; also recorded: no cytoprotective activity	bind to serum albumin	Detection in plasma by LC-MS/MS after oral gavage and intravenous injection [10]: detected in plasma
manganese(III) 5,15-dipropylporphine chloride [EUK-453]	cytotoxic; also recorded: most cytotoxic	5.95	98	0.56 ± 0.03	0.50 ± 0.11	8.8 ± 5.9	8.1 ± 5.5	7.7 ± 6.1	7.7 ± 6.0	4.6 ± 4.2	0.619 ± 0.017	4.16 ± 0.16	not significantly protective; also recorded: no cytoprotective activity	–	–
manganese(III) 5,15-dicyclohexylporphine chloride [EUK-452]	cytotoxic; also recorded: most cytotoxic	11.6	98	0.63 ± 0.05	0.54 ± 0.06	57 ± 50	52 ± 42	75 ± 63	75 ± 76	71 ± 63	1.973 ± 0.008	94.0 ± 1.7	not significantly protective; also recorded: no cytoprotective activity	–	–
C1=Cc2nc1cc1ccc([n-]1)c(-c1ccccc1)c1nc(cc3ccc([n-]3)c2-c2ccccc2)C=C1.CC(=O)[O-].[Mn+3] [EUK-423, manganese(III) 5,15-diphenylporphine acetate]	–	–	91	0.61 ± 0.05	0.45 ± 0.18	25 ± 7	53 ± 19	48 ± 23	110 ± 61	118 ± 17	0.907 ± 0.002	8.07 ± 0.10	protect PC12 cells against STS-induced cell death; also recorded: most protective	bind to serum albumin	Mitigation of apoptosis induced by ionizing radiation [11]: mitigated apoptosis induced by ionizing radiation; Cytotoxicity in endothelial cell culture model [12]: intermediate toxicity
manganese(III) 5,15-ditetrahydropyranyoporphine chloride [EUK-451]	–	3.36	100	0.59 ± 0.023	0.64 ± 0.25	44 ± 38	61 ± 54	66 ± 62	107 ± 102	86 ± 70	−0.660 ± 0.011	0.22 ± 0.01	protect PC12 cells against STS-induced cell death; also recorded: most protective	–	Mitigation of apoptosis induced by ionizing radiation [13]: potent mitigator; Cytotoxicity in endothelial cell culture model [14]: significantly lower cytotoxicity than the other EUK-400 compounds
C1=Cc2nc1cc1ccc([n-]1)c(C1CC1)c1nc(cc3ccc([n-]3)c2C2CC2)C=C1.CC(=O)[O-].[Mn+3] [EUK-418, manganese(III) 5,15-dicyclopropylporphine acetate]	–	1.73	92	0.63 ± 0.08	0.47 ± 0.10	128 ± 83	250 ± 147	245 ± 145	299 ± 224	259 ± 166	0.548 ± 0.009	3.53 ± 0.14	protect PC12 cells against STS-induced cell death; also recorded: relatively poor protector	bind to serum albumin	Mitigation of apoptosis induced by ionizing radiation [11]: mitigated apoptosis induced by ionizing radiation; Oral bioavailability in mice [2]: orally bioavailable in mice; Tissue distribution after oral administration ([2]; mice, selected tissues): kidney > liver > lung ≫ brain; Cytotoxicity in endothelial cell culture model [12]: greatest cytotoxicity
